Assay results from PubChem BioAssay AID1996.
Values after ≈ are worked out from the molar mass of the structure shown.

conditions: buffer; pH 7.4; 200.0 µM

| Structure (SMILES) | solubility kinetic |
| --- | --- |
| COc1ccc(Cl)cc1S(=O)(=O)Nc1ccc(Cl)cn1 | 1.3 µg/mL (≈ 3.9 µM) |
| N=C1c2ccccc2CN1c1cccc([N+](=O)[O-])c1 | > 38 µg/mL |
| COc1ccc(NC(=O)CC(C)CC(=O)NCc2ccccc2)c(OC)c1 (stereo unspecified) | 5 µg/mL (≈ 13.5 µM) |
| CNC1(C)[C@H]2CC[C@H](C2)C1(C)C.Cl (stereo partly specified) | > 30.6 µg/mL |
| CC(=O)c1ccc(NC(=S)Nc2cccc(Cl)c2C)cc1 | 40.7 µg/mL (≈ 128 µM) |
| CCC(=O)c1ccc(OCC(=O)OCC(=O)N(CCC#N)c2ccc3c(c2)OCCO3)cc1 | 47.5 µg/mL (≈ 105 µM) |
| Cc1ccc(SCC(=O)Nc2ccc3c(c2)C(=O)N(C)C3=O)cc1 | 3.2 µg/mL (≈ 9.4 µM) |
| S=c1[nH]c2cc3ccccc3cc2[nH]1 | 27.9 µg/mL (≈ 139 µM) |
| COc1ccc(-c2nc3ccccc3c(=O)n2CCc2ccc(O)cc2)cc1 | 12.4 µg/mL (≈ 33.3 µM) |
| CC(C)c1ccc(NC(=O)Cn2c(=O)oc3ccccc32)cc1 | 2.1 µg/mL (≈ 6.77 µM) |
| Cc1nn(C)cc1C(C)Nc1nc2nonc2nc1N1CCCCC1 (stereo unspecified) | > 51.4 µg/mL |
| CNc1nc(N)c([N+](=O)[O-])c(NCC2CCCO2)n1 (stereo unspecified) | > 40.2 µg/mL |
| COc1ccccc1C(=O)NNC(=O)C(=O)NC(C)C | > 41.9 µg/mL |
| Cc1ccc(NC(=O)CCCC2CCCCC2)c(O)c1 | < 0.6 µg/mL |
| CCOC(=O)n1c(=O)n(Cc2ccc(OC)cc2)c2ccccc21 | 29.5 µg/mL (≈ 90.4 µM) |
| O=C(O)CCCCCNCc1c(Cl)cccc1Cl | 41.6 µg/mL (≈ 143 µM) |
| CCOC(=O)N1CCN(C(=S)NC(=O)/C=C/c2ccc(C)cc2)CC1 | 18.1 µg/mL (≈ 50.1 µM) |
| Cc1nn(-c2ccccn2)c(N)c1N=O | > 30.5 µg/mL |
| Cc1ccc(C)c(NC(=O)Nc2ccc3c(c2)OCO3)c1 | 1 µg/mL (≈ 3.52 µM) |
| COC(=O)[C@H](C)NC(=O)NCc1ccccc1 | > 35.4 µg/mL |

| Structure (SMILES) | solubility kinetic |
| --- | --- |
| CC(C)Cc1nc2oc3c(NCC(C)O)ncnc3c2c2c1CCCC2 (stereo unspecified) | 2.1 µg/mL (≈ 5.92 µM) |
| C=CCNc1nc(N)c([N+](=O)[O-])c(NCCO)n1 | > 38.1 µg/mL |
| CN(C(=S)NC(=O)C12CC3CC(CC(C3)C1)C2)c1ccc(O)cc1 | 45.8 µg/mL (≈ 133 µM) |
| Cc1cc(OCC(=O)N2CCCN(C)CC2)ccc1Cl | > 44.5 µg/mL |
| CCOC(=O)c1cccc(NC(=O)c2ccc3c(c2)OCO3)c1 | 2.7 µg/mL (≈ 8.62 µM) |
| O=C(COC(=O)C1CC1)NCc1ccc(Cl)cc1Cl | 41.9 µg/mL (≈ 139 µM) |
| COc1ccc(C(=O)Nc2nc(C)cc(C)n2)cc1 | > 38.6 µg/mL |
| O=C(NCC1CC1)Nc1ccc(Cl)cc1 | 18.9 µg/mL (≈ 84.1 µM) |
| O=C(CSc1nncs1)Nc1nccs1 | > 38.7 µg/mL |
| COc1ccc(-c2cc(C(=O)Nc3ccc(C)c(C)c3)no2)cc1 | < 0.3 µg/mL |
| CN(CC(=O)Nc1sccc1C(N)=O)S(=O)(=O)c1ccc(Cl)cc1 | 8.7 µg/mL (≈ 22.4 µM) |
| COc1cc(Cl)c(C)cc1NC(=O)CCNC(=O)c1ccco1 | > 50.5 µg/mL |
| N#CC(C#N)=C1NC2(CCCCC2)Cc2ccccc21 | 0.8 µg/mL (≈ 3.04 µM) |
| Cc1cccc(NC(=O)OC2CN3CCC2CC3)c1 (stereo unspecified) | > 39.1 µg/mL |
| Cc1cc(SCc2ccc(Cl)cc2Cl)nc(=O)[nH]1 | 4.6 µg/mL (≈ 15.3 µM) |
| Cc1cc([N+](=O)[O-])ccc1NC(=S)NC1CCCC1 | 21.9 µg/mL (≈ 78.4 µM) |
| O=C(COC(=O)COc1ccc(Br)cc1)NCc1ccc2c(c1)OCO2 | 8.4 µg/mL (≈ 19.9 µM) |
| Cn1cnc(S(=O)(=O)Nc2cc(-c3ccc(Cl)cc3)nn2C)c1 | > 52.8 µg/mL |
| CCOC(=O)c1ccc(N)cc1 | > 24.8 µg/mL |

Further lines, results first:

| solubility kinetic | Structure (SMILES) |
| --- | --- |
| 28.3 µg/mL (≈ 92.4 µM) | COc1ccc(F)cc1S(=O)(=O)n1cnc2ccccc21 |
| < 0.4 µg/mL | O=C(NC1CCN(S(=O)(=O)c2ccccc2)CC1)c1ccccc1 |
| 2.6 µg/mL (≈ 8.83 µM) | Cc1ccc(NC(=O)N2CCC(c3ccccc3)C2)cc1C (stereo unspecified) |
| > 51.4 µg/mL | O=C(Cc1ccc(Cl)cc1)Nc1ccc(CN2CCCCC2)cc1 |
| > 66.1 µg/mL | O=C(COC(=O)c1cc(S(=O)(=O)N2CCCC2)ccc1O)Nc1ccc(F)cc1F |
| 34.1 µg/mL (≈ 133 µM) | O=C(CCc1ccccc1)NCc1ccc(F)cc1 |
| 37.5 µg/mL (≈ 124 µM) | CC1CCCCC1NC(=O)CSc1nc2ccccc2[nH]1 (stereo unspecified) |
| 1.7 µg/mL (≈ 5.44 µM) | COc1ccc(OC)c(NC(=O)N2CCCc3ccccc32)c1 |
| > 45.6 µg/mL | O=C(Nc1ccccc1)NN(C(=O)CCl)c1ccccc1 |
| 32.5 µg/mL (≈ 100 µM) | CC(c1ccccc1)C1CC(=O)N(c2ccc([N+](=O)[O-])cc2)C1=O (stereo unspecified) |
| > 55.6 µg/mL | COc1ccc(CC(=O)NCC(=O)NC(Cc2ccccc2)C(=O)O)cc1 (stereo unspecified) |
| > 41.3 µg/mL | NC(=Nc1ccc(Br)cc1)c1ccccc1 |
| > 47.9 µg/mL | O=C(c1c[nH]c2ccccc12)N1CCN(Cc2ccccc2)CC1 |
| 1.2 µg/mL (≈ 4.05 µM) | Cc1cccc(NC(=O)C2Cc3ccccc3O/C2=N\O)c1 (stereo unspecified) |
| > 46.9 µg/mL | O=C(CSc1nnc2ccccn12)NC(=O)c1ccccc1 |
| > 33.2 µg/mL | CCS(=O)(=O)N1CCC(C(=O)O)CC1 |
| > 55 µg/mL | O=C(Nc1ccccc1)c1ccccc1NC(=O)[C@H]1CCCC[C@H]1C(=O)O |
| 32.4 µg/mL (≈ 89.3 µM) | CN(Cc1ccccc1F)C(=O)CCCNC(=O)c1ccc(Cl)cc1 |
| 45.5 µg/mL (≈ 143 µM) | O=C(COC(=O)c1ccc(Cl)nc1)NCCc1ccccc1 |
| 3.1 µg/mL (≈ 7.23 µM) | COCc1c(C(=O)Nc2cccc(S(=O)(=O)N3CCCCC3)c2)oc2ccccc12 |
| 38.4 µg/mL (≈ 134 µM) | O=S(=O)(NC1CC2CCC1C2)c1ccc(Cl)cc1 (stereo unspecified) |
| 1.9 µg/mL (≈ 5.24 µM) | COc1ccc(C(=O)Nc2cc(C)c(NC(=O)c3ccccn3)cn2)cc1 |
